In patent US3945994A, “Novel acid compounds” (Gist-Brocades N.V., priority 1973, dated 1976):
In brackets after ≈: the same amount, converted by molar mass.

Experiments:
Assay type in all cases: cell-based
Salmonella dublin P 43 = details: Salmonella enterica, P43; agar serial dilution, 24 hours at 37°C
[1] = test system: Pseudomonas aeruginosa H 10; details: H10, agar serial dilution, 24 hours at 37°C
[2] = test system: Pasteurella multocida A 723; details: A723, agar serial dilution, 24 hours at 37°C
Proteus rettgeri A 821 = details: Providencia rettgeri, A821; agar serial dilution, 24 hours at 37°C
Proteus morganii 2241 = details: Morganella morganii, agar serial dilution, 24 hours at 37°C
Escherichia coli U 20 = details: U20, agar serial dilution, 24 hours at 37°C
[3] = test system: Bacillus subtilis ATCC 6633; details: ATCC6633, agar serial dilution, 24 hours at 37°C
[4] = test system: Pseudomonas aeruginosa Wyeth A 1058; details: WYETHA1058, agar serial dilution, 24 hours at 37°C
[5] = test system: Salmonella typhimurium R 127; details: Salmonella enterica, agar serial dilution, 24 hours at 37°C
[6] = test system: Streptococcus haemolyticus A 266; details: A266, agar serial dilution, 24 hours at 37°C
[7] = test system: Streptococcus faecalis L 80; details: Enterococcus faecalis, L80; agar serial dilution, 24 hours at 37°C
Proteus mirabilis H 3 = details: H3, agar serial dilution, 24 hours at 37°C
[8] = test system: Pseudomonas aeruginosa 2396; details: agar serial dilution, 24 hours at 37°C
[9] = test system: Klebsiella pneumoniae A 809; details: A809, agar serial dilution, 24 hours at 37°C
[10] = test system: Diplococcus pneumoniae L 54; details: Streptococcus pneumoniae, L54; agar serial dilution, 24 hours at 37°C
[11] = test system: Staphylococcus aureus A 321; details: A321, agar serial dilution, 24 hours at 37°C
[12] = test system: Staphylococcus aureus A 355'; details: agar serial dilution, 24 hours at 37°C
[13] = test system: Staphylococcus aureus A 2000; details: A2000, agar serial dilution, 24 hours at 37°C
Proteus mirabilis A 1200 = details: A1200, agar serial dilution, 24 hours at 37°C
[14] = test system: Staphylococcus aureus A 2001; details: A2001, agar serial dilution, 24 hours at 37°C

With `CC1(C)S[C@@H]2[C@H](NC(=O)[C@H](NC(=O)NS(=O)(=O)Nc3cccnc3)c3ccccc3)C(=O)N2[C@H]1C(=O)O` [XI, D-6-[α-{3-(pyrid-3-ylaminosulfonyl)-ureido}-benzylcarbonamido]-penicillanic acid] the MIC (Salmonella dublin P 43) was 50 µg/mL (≈ 91.1 µM), the MIC [1] was > 100 µg/mL and the MIC [2] was 0.5 µg/mL (≈ 0.911 µM). The MIC (Proteus rettgeri A 821) was 3 µg/mL (≈ 5.47 µM), the MIC (Proteus morganii 2241) was > 100 µg/mL and the MIC (Escherichia coli U 20) was > 100 µg/mL. The MIC [3] was 0.25 µg/mL (≈ 0.456 µM), the MIC [4] was 50 µg/mL (≈ 91.1 µM) and the MIC [5] was > 100 µg/mL. For the same compound, the MIC [6] was 0.12 µg/mL (≈ 0.219 µM), the MIC [7] was 6 µg/mL (≈ 10.9 µM) and the MIC (Proteus mirabilis H 3) was < 0.75 µg/mL. For the same compound, the MIC [8] was 50 µg/mL (≈ 91.1 µM), the MIC [9] was > 100 µg/mL and the MIC [10] was 0.25 µg/mL (≈ 0.456 µM). It also gave an MIC [11] of 3 µg/mL (≈ 5.47 µM).
For `CC1(C)S[C@@H]2[C@H](NC(=O)[C@H](NS(N)(=O)=O)c3ccccc3)C(=O)N2[C@H]1C(=O)O` [XVIII, D-6-[α-(aminosulfonylamino)-benzylcarbonamido]-penicillanic acid], the MIC (Salmonella dublin P 43) was 6 µg/mL (≈ 14 µM), the MIC [1] was > 100 µg/mL and the MIC [12] was 12.5 µg/mL (≈ 29.2 µM). It also gave an MIC [2] of 0.5 µg/mL (≈ 1.17 µM), an MIC (Proteus rettgeri A 821) of 1.5 µg/mL (≈ 3.5 µM) and an MIC (Proteus morganii 2241) of 25 µg/mL (≈ 58.3 µM). For the same compound, the MIC (Escherichia coli U 20) was 12.5 µg/mL (≈ 29.2 µM), the MIC [13] was 6 µg/mL (≈ 14 µM) and the MIC [3] was 0.5 µg/mL (≈ 1.17 µM). For the same compound, the MIC (Proteus mirabilis A 1200) was 6 µg/mL (≈ 14 µM), the MIC [4] was > 100 µg/mL and the MIC [5] was 12.5 µg/mL (≈ 29.2 µM). The MIC [6] was 0.06 µg/mL (≈ 0.14 µM), the MIC [7] was 1.5 µg/mL (≈ 3.5 µM) and the MIC (Proteus mirabilis H 3) was 12.5 µg/mL (≈ 29.2 µM). The MIC [14] was 3 µg/mL (≈ 7 µM), the MIC [8] was 50 µg/mL (≈ 117 µM) and the MIC [9] was > 100 µg/mL. It also gave an MIC [11] of 0.5 µg/mL (≈ 1.17 µM).
For `CC1(C)S[C@@H]2[C@H](NC(=O)[C@H](NC(=O)NS(=O)(=O)O)c3ccccc3)C(=O)N2[C@H]1C(=O)O` [XVII, D-6-[α-{3-(sulfo)-ureido}-benzylcarbonamido]-penicillanic acid], the MIC (Salmonella dublin P 43) was 6 µg/mL (≈ 12.7 µM), the MIC [1] was 50 µg/mL (≈ 106 µM) and the MIC [12] was 12.5 µg/mL (≈ 26.5 µM). The MIC [2] was 0.12 µg/mL (≈ 0.254 µM), the MIC (Proteus rettgeri A 821) was < 0.75 µg/mL and the MIC (Proteus morganii 2241) was 50 µg/mL (≈ 106 µM). For the same compound, the MIC (Escherichia coli U 20) was 25 µg/mL (≈ 52.9 µM), the MIC [13] was 12.5 µg/mL (≈ 26.5 µM) and the MIC [3] was 0.5 µg/mL (≈ 1.06 µM). It also gave an MIC (Proteus mirabilis A 1200) of 3 µg/mL (≈ 6.35 µM), an MIC [4] of 25 µg/mL (≈ 52.9 µM) and an MIC [5] of 50 µg/mL (≈ 106 µM). For the same compound, the MIC [6] was 0.12 µg/mL (≈ 0.254 µM), the MIC [7] was 25 µg/mL (≈ 52.9 µM) and the MIC (Proteus mirabilis H 3) was < 0.75 µg/mL. For the same compound, the MIC [14] was 12.5 µg/mL (≈ 26.5 µM), the MIC [8] was 25 µg/mL (≈ 52.9 µM) and the MIC [9] was 100 µg/mL (≈ 212 µM). The MIC [10] was 0.25 µg/mL (≈ 0.529 µM) and the MIC [11] was 3 µg/mL (≈ 6.35 µM).
Compound `Cc1noc(NS(=O)(=O)NC(=O)N[C@@H](C(=O)N[C@@H]2C(=O)N3[C@@H]2SC(C)(C)[C@@H]3C(=O)O)c2ccccc2)c1C` [XIII, D-6-[α-{3-(3,4-dimethylisoxazol-5-yl-aminosulfonyl)ureido}-benzylcarbonamido]-penicillanic acid] has an MIC (Salmonella dublin P 43) of 25 µg/mL (≈ 44.1 µM), an MIC [1] of 100 µg/mL (≈ 176 µM) and an MIC [12] of 25 µg/mL (≈ 44.1 µM). The MIC [2] was 0.12 µg/mL (≈ 0.212 µM), the MIC (Proteus rettgeri A 821) was 3 µg/mL (≈ 5.29 µM) and the MIC (Proteus morganii 2241) was 100 µg/mL (≈ 176 µM). It also gave an MIC (Escherichia coli U 20) of 12.5 µg/mL (≈ 22.1 µM), an MIC [13] of 12.5 µg/mL (≈ 22.1 µM) and an MIC [3] of 0.5 µg/mL (≈ 0.882 µM). The MIC (Proteus mirabilis A 1200) was 6 µg/mL (≈ 10.6 µM), the MIC [4] was 25 µg/mL (≈ 44.1 µM) and the MIC [5] was 50 µg/mL (≈ 88.2 µM). The MIC [6] was 0.12 µg/mL (≈ 0.212 µM), the MIC [7] was 12.5 µg/mL (≈ 22.1 µM) and the MIC (Proteus mirabilis H 3) was 12.5 µg/mL (≈ 22.1 µM). The MIC [14] was 3 µg/mL (≈ 5.29 µM), the MIC [8] was 50 µg/mL (≈ 88.2 µM) and the MIC [9] was 100 µg/mL (≈ 176 µM). For the same compound, the MIC [10] was 1.5 µg/mL (≈ 2.65 µM) and the MIC [11] was 1 µg/mL (≈ 1.76 µM).
`CC(C)NS(=O)(=O)NC(=O)N[C@@H](C(=O)N[C@@H]1C(=O)N2[C@@H]1SC(C)(C)[C@@H]2C(=O)O)c1ccccc1` [IX, D-6-[α-{3-(isopropylaminosulfonyl)-ureido}-benzylcarbonamido]-penicillanic acid] was tested, and the MIC [1] was > 100 µg/mL, the MIC [12] was 25 µg/mL (≈ 48.7 µM) and the MIC [2] was 0.5 µg/mL (≈ 0.974 µM). The MIC (Proteus rettgeri A 821) was 0.75 µg/mL (≈ 1.46 µM), the MIC (Proteus morganii 2241) was 100 µg/mL (≈ 195 µM) and the MIC (Escherichia coli U 20) was 25 µg/mL (≈ 48.7 µM). The MIC [13] was 25 µg/mL (≈ 48.7 µM), the MIC [3] was 1.5 µg/mL (≈ 2.92 µM) and the MIC (Proteus mirabilis A 1200) was 6 µg/mL (≈ 11.7 µM). For the same compound, the MIC [4] was > 100 µg/mL, the MIC [5] was 50 µg/mL (≈ 97.4 µM) and the MIC [6] was 0.75 µg/mL (≈ 1.46 µM). For the same compound, the MIC [7] was 25 µg/mL (≈ 48.7 µM), the MIC [8] was > 100 µg/mL and the MIC [9] was 100 µg/mL (≈ 195 µM). The MIC [11] was 1.5 µg/mL (≈ 2.92 µM).
In the case of `CC1(C)S[C@@H]2[C@H](NC(=O)[C@H](NC(=O)NS(=O)(=O)N3CCOCC3)c3ccccc3)C(=O)N2[C@H]1C(=O)O` [XIV, D-6-[α-{3-(morpholino-sulfonyl)-ureido}-benzylcarbonamido]-penicillanic acid], the MIC (Salmonella dublin P 43) was 50 µg/mL (≈ 92.3 µM), the MIC [1] was 100 µg/mL (≈ 185 µM) and the MIC [12] was 25 µg/mL (≈ 46.2 µM). It also gave an MIC [2] of 0.25 µg/mL (≈ 0.462 µM), an MIC (Proteus rettgeri A 821) of 1.5 µg/mL (≈ 2.77 µM) and an MIC (Proteus morganii 2241) of 100 µg/mL (≈ 185 µM). It also gave an MIC (Escherichia coli U 20) of 50 µg/mL (≈ 92.3 µM), an MIC [13] of 25 µg/mL (≈ 46.2 µM) and an MIC [3] of 1.5 µg/mL (≈ 2.77 µM). It also gave an MIC (Proteus mirabilis A 1200) of 3 µg/mL (≈ 5.54 µM), an MIC [4] of 100 µg/mL (≈ 185 µM) and an MIC [5] of 100 µg/mL (≈ 185 µM). For the same compound, the MIC [6] was 3 µg/mL (≈ 5.54 µM), the MIC [7] was 25 µg/mL (≈ 46.2 µM) and the MIC (Proteus mirabilis H 3) was 6 µg/mL (≈ 11.1 µM). For the same compound, the MIC [14] was 12.5 µg/mL (≈ 23.1 µM), the MIC [8] was 50 µg/mL (≈ 92.3 µM) and the MIC [9] was 100 µg/mL (≈ 185 µM). It also gave an MIC [11] of 6 µg/mL (≈ 11.1 µM).
